The results in this text go back to patent US12180162B1, “2-amino-4-(4-bromophenyl)-6-methoxypyridine-3,5-dicarbonitrile as an antibacterial compound” (KING FAISAL UNIVERSITY, priority 2023, dated 2024).

Common to all, as to assay: Antibacterial screening, agar disc-diffusion method
Common to all, as to type: cell-based

For one test, the system named is Bacillus Cereus. The following applies: Gram positive, 6 mm disc, 10 μL of 10 mg/mL in DMSO, DMSO zone subtracted. On the procedure: (§1) The antibacterial properties of the synthesized compound 2-amino-4-(4-bromophenyl)-6-methoxypyridine-3,5-dicarbonitrile were studied by the method of agar disc-diffusion method. Sterilized filter papers (6 mm in diameter) were wetted with 10 μL of a solution of 2-amino-4-(4-bromophenyl)-6-methoxypyridine-3,5-dicarbonitrile (3) to be tested, containing 10 mg/mL in DMSO, and the discs were allowed to air dry. The discs were then placed onto the surface of agar plates (nutrient agar for bacteria) seeded with the test organism. Each plate contained 15 mL of the agar medium, previously seeded with 0.2 mL of the broth culture of each organism pregrown for 18 hours. The inhibition zones was measured in mm. Discs impregnated with DMSO were used as a control, and its inhibition zone was subtracted from the tested compound actual inhibition zone. […] Their antibacterial screened against gram positive bacteria namely Bacillus cereus and Staphylococcus aureus and gram-negative bacterial strains namely Pseudomonas aeruginosa and Escherichia coli.

For the next test, the system named is Escherichia coli. The following applies: Gram negative, 6 mm disc, 10 μL of 10 mg/mL in DMSO, DMSO zone subtracted. On the procedure:
as §1

The subject of the next test is Pseudomonas aeruginosa. Particulars: Gram negative, 6 mm disc, 10 μL of 10 mg/mL in DMSO, DMSO zone subtracted. On the procedure:
as §1

Another test relates to Staphylococcus aureus. Particulars: Gram positive, 6 mm disc, 10 μL of 10 mg/mL in DMSO, DMSO zone subtracted. On the procedure:
as §1

Where two headings read alike, the source gives them in different places.

Consider `COc1nc(N)c(C#N)c(-c2ccc(Br)cc2)c1C#N` [Compound 3, 2-amino-4-(4-bromophenyl)-6-methoxypyridine-3,5-dicarbonitrile], for which the zone of inhibition at 10000 µg/mL with Bacillus Cereus (sub-column A (not defined), read-out: inhibition zone, Bacillus Cereus, A) amounted to 32 mm; in the test on Bacillus Cereus (sub-column B (not defined), read-out: inhibition zone, Bacillus Cereus, B) it was 37 mm; with Bacillus Cereus (sub-column C (not defined), read-out: inhibition zone, Bacillus Cereus, C), 40 mm; in the test with Escherichia coli (sub-column A (not defined), read-out: inhibition zone, Escherichia coli, A) it was 39 mm; in the test with Escherichia coli (sub-column B (not defined), read-out: inhibition zone, Escherichia coli, B), 41 mm; in the test on Escherichia coli (sub-column C (not defined), read-out: inhibition zone, Escherichia coli, C), 46 mm. Also, the zone of inhibition at 10000 µg/mL with Pseudomonas aeruginosa (sub-column A (not defined), read-out: inhibition zone, Pseudomonas aeruginosa, A) is 24 mm; in the test on Pseudomonas aeruginosa (sub-column B (not defined), read-out: inhibition zone, Pseudomonas aeruginosa, B), 34 mm; with Pseudomonas aeruginosa (sub-column C (not defined), read-out: inhibition zone, Pseudomonas aeruginosa, C), 39 mm; in the test with Staphylococcus aureus (sub-column A (not defined), read-out: inhibition zone, Staphylococcus aureus, A) it was 18 mm; in the test with Staphylococcus aureus (sub-column B (not defined), read-out: inhibition zone, Staphylococcus aureus, B), 27 mm; with Staphylococcus aureus (sub-column C (not defined), read-out: inhibition zone, Staphylococcus aureus, C) it was 33 mm.
